This note sets out measurements from PMC11678425, “(-)-Syringaresinol Exerts an Antidepressant-like Activity in Mice by Noncompetitive Inhibition of the Serotonin Transporter” (Pharmaceuticals, 2024).

For assay [1], the target named is T1, hSERT Y95F (Homo sapiens, UniProt P31645, Y95F).
T1 construct: forward and reverse primers were used to amplify a full-length hSERT; expressed in transfected cells; host or cells: HeLa
Kind of assay: APP^+ uptake, hSERT Y95F. Type of assay: cell-based. Particulars: S1 site mutant, read-out: SYR IC50 for Transport. As to the method: (§1) HeLa cells were cultured in Dulbecco’s Modified Eagle’s Medium supplemented with 10% fetal bovine serum, 100 units/mL penicillin, and 100 μg/mL streptomycin at 37 °C in a humidified 5% CO2 incubator. Cells grown at ~70% confluence in a 6 cm culture dish were transfected with hSERT cDNA in pcDNA3.1 by lipofectamine 2000. Transfected cells were incubated for 12 h at 37 °C with 5% CO2 and then transferred into 96-well plates. After being grown for an additional 12–16 h, the cells were then assayed for APP^+ uptake or ASP^+ binding.
(§2) Measurement of transport or ligand binding activity of SERT was performed by using its fluorescent substrate (APP^+) or ligand (ASP^+), respectively. The cells transiently expressing WT or mutants of hSERT were applied for various treatments. Briefly, the cells were washed twice with 100 μL KRH buffer containing 20 mM HEPES (Neofroxx, Einhausen, Germany), pH 7.4, 120 mM NaCl, 1.3 mM KCl, 2.2 mM CaCl2, 1.2 mM MgSO4, and 0.1% (w/v) glucose. APP^+ uptake was measured by adding 100 μL KRH buffer containing 2 μM APP^+ and incubating for 5 min at 22 °C. Excess APP^+ was then removed by 3× rapid washing with 100 μL KRH buffer each time. The extent of APP^+ accumulated in the cells was determined by fluorescence spectrometry with an Infinite 200 Pro microplate reader (Tecan, Männedorf, Switzerland). […]

For assay [2], the target named is T2, hSERT L563A (Homo sapiens, UniProt P31645, L563A).
T2 construct: forward and reverse primers were used to amplify a full-length hSERT; expressed in transfected cells; host or cells: HeLa
In words: APP^+ uptake, hSERT L563A. Type of assay: cell-based. Particulars: S2 site mutant, read-out: SYR IC50 for Transport.

The target in assay [3] is T3, hSERT I172F (Homo sapiens, UniProt P31645, I172F).
T3 construct: forward and reverse primers were used to amplify a full-length hSERT; expressed in transfected cells; host or cells: HeLa
In words: APP^+ uptake, hSERT I172F. Format: cell-based. Particulars: S1 site mutant, read-out: SYR IC50 for Transport. As to the method:
as §1, §2

Assay [4] addresses T4, hSERT Q111N (Homo sapiens, UniProt P31645, Q111N).
T4 construct: forward and reverse primers were used to amplify a full-length hSERT; expressed in transfected cells; host or cells: HeLa cells, transient, pcDNA3.1
In words: ASP^+ binding, hSERT Q111N. Particulars: S2 site mutant, read-out: SYR IC50 for Binding.

Assay [5] deals with T5, hSERT R564A (Homo sapiens, UniProt P31645, R564A).
T5 construct: forward and reverse primers were used to amplify a full-length hSERT; expressed in transfected cells; host or cells: HeLa
Kind of assay: ASP^+ binding, hSERT R564A. Particulars: S2 site mutant, read-out: SYR IC50 for Binding.

In assay [6] the target is T6, hSERT G498T (Homo sapiens, UniProt P31645, G498T).
T6 construct: forward and reverse primers were used to amplify a full-length hSERT; expressed in transfected cells; host or cells: HeLa cells, transient, pcDNA3.1
In words: APP^+ uptake, hSERT G498T. Type of assay: cell-based. Particulars: S2 site mutant, read-out: SYR IC50 for Transport.

The target in assay [7] is T7, hSERT P561G (Homo sapiens, UniProt P31645, P561G).
T7 construct: forward and reverse primers were used to amplify a full-length hSERT; expressed in transfected cells; host or cells: HeLa
In words: APP^+ uptake, hSERT P561G. Particulars: S2 site mutant, read-out: SYR IC50 for Transport. Format: cell-based.

Assay [8] concerns the target T8, hSERT T497A (Homo sapiens, UniProt P31645, T497A).
T8 construct: forward and reverse primers were used to amplify a full-length hSERT; expressed in transfected cells; host or cells: HeLa cells, transient, pcDNA3.1
In words: ASP^+ binding, hSERT T497A. Particulars: S2 site mutant, read-out: SYR IC50 for Binding.

Assay [9] has as its target T9, hSERT F556A (Homo sapiens, UniProt P31645, F556A).
T9 construct: forward and reverse primers were used to amplify a full-length hSERT; expressed in transfected cells; host or cells: HeLa cells, transient, pcDNA3.1
Kind of assay: ASP^+ binding, hSERT F556A. Particulars: S2 site mutant, read-out: SYR IC50 for Binding.

The test system of assay [10] is BDNF, PSD-95, GluA1, and vGluT1. In words: Immunoblot of synaptic proteins in mPFC of CUMS mice. Type of assay: in vivo, mouse. Particulars: SYR administration. The protocol: Figure 7 SYR effects on the expression of c-Fos and synaptic proteins in mPFC. (A) Representative immunohistochemical images of c-Fos expression in mPFC under the indicated treatments. Immunohistochemistry of c-Fos was performed with mPFC slices as described in Section 4. The slices were re-probed with anti-DAPI antibody. Immunofluorescence images for c-Fos (green) and DAPI (blue) were acquired by confocal microscopy. (B) Quantitative analysis for c-Fos expression in mPFC with various treatments. Protein expression is expressed as a percentage of c-Fos fluorescence measured in the control group. Bars represent the mean ± SEM (n = 4). * p < 0.05, ** p < 0.01 compared with the control or CUMS group by one-way ANOVA followed by post hoc tests, respectively. […] (D–G) Quantification of the expression of the synaptic proteins BDNF (D), PSD-95 (E), GluA1 (F), and vGluT1 (G). The expression level is expressed as a percentage of the integrated density obtained from the control group. […]
Synaptic proteins were extracted from mPFC or hippocampus tissues using RIPA lysis buffer, respectively. Expression of the indicated proteins under various treatments was then analyzed by immunoblotting, as previously reported. […] Quantification of immunoreactive protein bands was performed using Image J v1.53u, and GAPDH was used as an internal reference to normalize expression levels of those proteins, respectively.
For orientation: In western blotting, separated proteins are transferred to a membrane and probed.

The target of assay [11] is T10, hSERT P560G (Homo sapiens, UniProt P31645, P560G).
T10 construct: forward and reverse primers were used to amplify a full-length hSERT; expressed in transfected cells; host or cells: HeLa cells, transient, pcDNA3.1
In words: ASP^+ binding, hSERT P560G. Particulars: S2 site mutant, read-out: SYR IC50 for Binding.

In assay [12] the target is T11, hSERT WT (Homo sapiens, UniProt P31645).
T11 construct: forward and reverse primers were used to amplify a full-length hSERT; expressed in transfected cells; host or cells: HeLa cells (CCL-2), transient, pcDNA3.1
Kind of assay: ASP^+ binding, hSERT WT. Particulars: digitonin-permeabilized cells, read-out: SYR IC50 for Binding.

Assay [13] deals with hSERT Q111N, G498T, P561G, Q562N. Kind of assay: ASP^+ binding, four S2 mutants compared with WT. On the set-up: species or system human. Particulars: P561G, and Q562N. As to the method: as §1
ASP^+ binding to SERT expressed on the cell surface was measured with digitonin-permeabilized cells as described previously. The cells expressing WT or mutants of hSERT were incubated with 10 μM ASP^+ in the presence of 25 μg/mL digitonin at 22 °C for 5 min. After removing excess ASP^+ by 3× rapid washing, ASP^+ fluorescence retained in the cell membrane was determined by fluorescence spectrometry.
hSERT mutants were generated using the Mut Express II Fast Mutagenesis kit (Vazyme, Nanjing, China). Briefly, forward and reverse primers were used to amplify a full-length hSERT. The PCR products were then digested with restriction enzymes, excised from agarose gels, and ligated into pcDNA3.1. All mutations were confirmed by full-length DNA sequencing.

A value given as a limit tells only on which side of the number the result lay.

T7 sequence (P31645 whole entry P561G): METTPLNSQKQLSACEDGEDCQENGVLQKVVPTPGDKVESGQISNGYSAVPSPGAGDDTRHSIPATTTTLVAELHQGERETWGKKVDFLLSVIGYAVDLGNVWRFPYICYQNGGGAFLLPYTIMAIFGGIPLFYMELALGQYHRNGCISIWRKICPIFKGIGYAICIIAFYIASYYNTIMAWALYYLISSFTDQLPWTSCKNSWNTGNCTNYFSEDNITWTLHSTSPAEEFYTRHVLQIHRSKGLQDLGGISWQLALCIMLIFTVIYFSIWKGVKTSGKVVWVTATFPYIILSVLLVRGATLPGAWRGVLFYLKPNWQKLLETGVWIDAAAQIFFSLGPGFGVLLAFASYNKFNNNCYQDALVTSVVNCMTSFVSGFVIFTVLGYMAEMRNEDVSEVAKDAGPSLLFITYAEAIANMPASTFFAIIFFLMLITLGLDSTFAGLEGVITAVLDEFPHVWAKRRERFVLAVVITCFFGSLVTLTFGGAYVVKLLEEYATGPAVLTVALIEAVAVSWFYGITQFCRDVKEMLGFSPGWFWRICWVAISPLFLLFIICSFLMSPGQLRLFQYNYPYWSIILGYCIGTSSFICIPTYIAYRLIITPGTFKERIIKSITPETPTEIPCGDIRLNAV
T9 sequence (P31645 whole entry F556A): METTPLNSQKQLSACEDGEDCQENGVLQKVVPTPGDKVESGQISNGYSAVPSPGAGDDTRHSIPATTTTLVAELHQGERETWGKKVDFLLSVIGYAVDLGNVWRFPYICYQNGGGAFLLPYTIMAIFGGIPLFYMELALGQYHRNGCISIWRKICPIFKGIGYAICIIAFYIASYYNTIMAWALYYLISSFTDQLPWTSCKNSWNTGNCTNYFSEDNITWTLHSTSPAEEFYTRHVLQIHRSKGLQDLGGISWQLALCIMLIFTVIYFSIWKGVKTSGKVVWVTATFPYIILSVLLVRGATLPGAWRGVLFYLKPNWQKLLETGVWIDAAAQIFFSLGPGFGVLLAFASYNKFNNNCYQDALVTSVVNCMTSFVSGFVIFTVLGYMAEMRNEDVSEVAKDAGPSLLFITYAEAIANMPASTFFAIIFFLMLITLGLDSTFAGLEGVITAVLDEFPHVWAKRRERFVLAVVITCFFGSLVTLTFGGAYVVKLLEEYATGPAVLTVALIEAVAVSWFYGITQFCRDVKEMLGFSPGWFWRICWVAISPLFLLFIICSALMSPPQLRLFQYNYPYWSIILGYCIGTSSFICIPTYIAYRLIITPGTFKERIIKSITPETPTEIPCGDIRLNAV
T11 sequence (P31645 whole entry): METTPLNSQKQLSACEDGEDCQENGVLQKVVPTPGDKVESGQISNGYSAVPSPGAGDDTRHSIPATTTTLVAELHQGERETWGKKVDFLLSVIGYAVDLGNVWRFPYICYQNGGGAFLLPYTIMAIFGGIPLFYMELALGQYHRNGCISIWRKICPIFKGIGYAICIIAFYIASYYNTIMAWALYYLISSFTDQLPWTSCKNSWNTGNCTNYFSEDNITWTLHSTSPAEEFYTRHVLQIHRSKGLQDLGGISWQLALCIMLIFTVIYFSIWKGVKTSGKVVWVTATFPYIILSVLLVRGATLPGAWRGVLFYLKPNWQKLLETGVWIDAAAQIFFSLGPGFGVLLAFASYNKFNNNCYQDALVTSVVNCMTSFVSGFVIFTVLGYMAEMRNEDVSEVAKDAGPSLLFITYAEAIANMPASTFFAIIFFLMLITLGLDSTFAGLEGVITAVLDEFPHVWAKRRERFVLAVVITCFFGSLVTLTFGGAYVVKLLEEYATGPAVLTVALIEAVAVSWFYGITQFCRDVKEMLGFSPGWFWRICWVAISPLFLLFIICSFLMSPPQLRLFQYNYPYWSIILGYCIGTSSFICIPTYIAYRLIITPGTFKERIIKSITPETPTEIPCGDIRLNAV
T10 sequence (P31645 whole entry P560G): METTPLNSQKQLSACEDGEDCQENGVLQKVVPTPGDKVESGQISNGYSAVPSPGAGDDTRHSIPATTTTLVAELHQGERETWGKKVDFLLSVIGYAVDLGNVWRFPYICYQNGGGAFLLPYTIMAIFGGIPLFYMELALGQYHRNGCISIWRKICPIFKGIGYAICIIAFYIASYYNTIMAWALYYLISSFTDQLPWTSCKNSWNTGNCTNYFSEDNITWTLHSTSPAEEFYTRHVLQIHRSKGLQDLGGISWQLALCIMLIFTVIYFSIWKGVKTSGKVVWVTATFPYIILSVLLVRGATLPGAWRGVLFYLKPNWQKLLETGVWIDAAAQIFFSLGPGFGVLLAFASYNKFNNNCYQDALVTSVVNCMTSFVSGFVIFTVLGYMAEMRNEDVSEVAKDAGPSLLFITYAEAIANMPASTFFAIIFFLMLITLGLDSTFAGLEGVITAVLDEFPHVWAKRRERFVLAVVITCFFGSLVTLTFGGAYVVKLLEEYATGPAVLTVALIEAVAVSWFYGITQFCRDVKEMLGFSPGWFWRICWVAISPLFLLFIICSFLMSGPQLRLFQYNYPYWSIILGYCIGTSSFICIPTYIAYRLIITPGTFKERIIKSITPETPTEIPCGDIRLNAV
T3 sequence (P31645 whole entry I172F): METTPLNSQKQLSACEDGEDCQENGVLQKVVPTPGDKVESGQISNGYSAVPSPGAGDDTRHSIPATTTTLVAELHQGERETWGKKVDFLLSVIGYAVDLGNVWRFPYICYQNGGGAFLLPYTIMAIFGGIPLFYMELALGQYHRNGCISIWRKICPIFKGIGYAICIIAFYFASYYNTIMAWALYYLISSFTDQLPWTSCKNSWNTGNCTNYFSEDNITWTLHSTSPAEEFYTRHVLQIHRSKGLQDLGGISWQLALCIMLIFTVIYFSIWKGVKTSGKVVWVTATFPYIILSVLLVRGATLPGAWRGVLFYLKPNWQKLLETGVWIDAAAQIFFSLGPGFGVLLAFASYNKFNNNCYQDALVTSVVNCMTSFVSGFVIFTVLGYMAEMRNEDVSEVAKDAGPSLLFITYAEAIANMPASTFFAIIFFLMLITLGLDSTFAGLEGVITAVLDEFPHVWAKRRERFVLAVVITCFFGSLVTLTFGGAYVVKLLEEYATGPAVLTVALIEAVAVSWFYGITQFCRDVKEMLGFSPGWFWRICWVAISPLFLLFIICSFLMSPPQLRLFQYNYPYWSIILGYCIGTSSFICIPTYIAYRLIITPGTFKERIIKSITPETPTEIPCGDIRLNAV
T6 sequence (P31645 whole entry G498T): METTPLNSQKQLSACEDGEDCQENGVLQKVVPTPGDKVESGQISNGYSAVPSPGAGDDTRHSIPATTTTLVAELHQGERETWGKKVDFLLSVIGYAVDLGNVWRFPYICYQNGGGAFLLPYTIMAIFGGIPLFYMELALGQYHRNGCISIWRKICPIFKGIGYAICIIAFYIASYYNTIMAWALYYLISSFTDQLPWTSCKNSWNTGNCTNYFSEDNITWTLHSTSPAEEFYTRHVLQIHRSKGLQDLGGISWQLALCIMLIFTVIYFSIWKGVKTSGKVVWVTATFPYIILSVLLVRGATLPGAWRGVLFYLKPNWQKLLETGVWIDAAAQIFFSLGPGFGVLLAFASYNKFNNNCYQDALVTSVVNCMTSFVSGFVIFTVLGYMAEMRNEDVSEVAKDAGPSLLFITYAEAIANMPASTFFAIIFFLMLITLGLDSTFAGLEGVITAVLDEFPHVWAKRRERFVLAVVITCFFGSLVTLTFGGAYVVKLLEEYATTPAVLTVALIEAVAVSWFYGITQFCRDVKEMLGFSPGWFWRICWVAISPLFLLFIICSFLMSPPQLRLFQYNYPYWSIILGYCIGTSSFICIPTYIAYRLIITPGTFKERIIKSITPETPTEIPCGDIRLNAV
T4 sequence (P31645 whole entry Q111N): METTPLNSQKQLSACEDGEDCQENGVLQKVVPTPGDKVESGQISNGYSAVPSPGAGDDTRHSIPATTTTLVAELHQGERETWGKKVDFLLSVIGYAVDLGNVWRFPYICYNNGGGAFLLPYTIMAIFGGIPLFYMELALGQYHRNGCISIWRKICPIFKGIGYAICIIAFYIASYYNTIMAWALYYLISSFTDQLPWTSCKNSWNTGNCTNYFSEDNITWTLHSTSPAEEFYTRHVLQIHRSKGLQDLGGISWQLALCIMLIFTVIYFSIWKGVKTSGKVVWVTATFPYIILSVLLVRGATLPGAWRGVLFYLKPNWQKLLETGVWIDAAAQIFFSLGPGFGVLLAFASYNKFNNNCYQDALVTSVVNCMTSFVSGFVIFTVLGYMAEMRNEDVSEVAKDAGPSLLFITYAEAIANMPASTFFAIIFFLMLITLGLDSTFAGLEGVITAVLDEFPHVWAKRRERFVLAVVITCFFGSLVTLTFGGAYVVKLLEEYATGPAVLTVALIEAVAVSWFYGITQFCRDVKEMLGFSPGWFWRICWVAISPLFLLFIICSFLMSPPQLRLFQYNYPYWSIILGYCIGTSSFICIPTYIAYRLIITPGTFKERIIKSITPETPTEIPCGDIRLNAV
T8 sequence (P31645 whole entry T497A): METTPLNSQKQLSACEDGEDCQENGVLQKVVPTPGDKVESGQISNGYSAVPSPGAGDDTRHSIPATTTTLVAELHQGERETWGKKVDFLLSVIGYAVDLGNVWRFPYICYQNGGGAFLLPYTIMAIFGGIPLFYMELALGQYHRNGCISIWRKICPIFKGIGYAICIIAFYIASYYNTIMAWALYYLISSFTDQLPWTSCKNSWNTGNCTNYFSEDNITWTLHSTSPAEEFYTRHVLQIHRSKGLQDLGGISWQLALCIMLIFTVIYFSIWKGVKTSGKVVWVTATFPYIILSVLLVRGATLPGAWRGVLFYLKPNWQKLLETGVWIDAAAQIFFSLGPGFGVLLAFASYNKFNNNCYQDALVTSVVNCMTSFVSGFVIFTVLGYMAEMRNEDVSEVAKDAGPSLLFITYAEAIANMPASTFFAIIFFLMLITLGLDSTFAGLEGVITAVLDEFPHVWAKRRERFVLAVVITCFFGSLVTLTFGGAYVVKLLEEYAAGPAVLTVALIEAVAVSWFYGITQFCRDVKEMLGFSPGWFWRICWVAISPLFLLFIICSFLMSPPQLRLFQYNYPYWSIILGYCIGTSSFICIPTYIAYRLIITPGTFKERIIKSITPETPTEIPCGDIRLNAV

As a reminder, the IC50 is the concentration that inhibits the measured activity by half. Consider `COc1cc([C@@H]2OC[C@@H]3[C@H]2CO[C@H]3c2cc(OC)c(O)c(OC)c2)cc(OC)c1O` [SYR, (-)-syringaresinol], for which the IC50 is 2.64 ± 0.12 µM in [1]; 6.28 ± 0.57 µM in assay [2]; 2.22 ± 0.04 µM in [3]; 115 ± 2.47 µM in [4]; 30.4 ± 1.42 µM in assay [5]; 40.5 ± 0.54 µM in assay [6]. Besides, the IC50 in assay [7] turned out to be 46.3 ± 0.94 µM; in [8] it was 43.7 ± 2.6 µM; in assay [9], 21.6 ± 1.2 µM; in assay [11], 14.7 ± 0.26 µM; in [12], 0.96 ± 0.02 µM. Further, in assay [10], the “CUMS-induced reduction in expression of synaptic proteins BDNF, PSD-95, GluA1, vGluT1 in mPFC” value was “attenuated”. Besides, the “SYR IC50 for ASP^+ binding relative to WT” value in assay [13] is at least 100 fold.
